In experiment [1] the test system is ex vivo instilled rat lung. Put plainly: Ex vivo rat flooded lung, model of hydrostatic edema. The protocol:
In this model edema is induced by instillating 2 ml of 0.9% NaCl solution intratracheally. Alternatively, edema formation can be modulated by varying the height of the venous outflow and the perfusion buffer containing reservoir, or alternatively by varying the time the lung is exposed to the elevated pressure. […] The clearance of alveolar fluid from the lung is calculated by means of measuring the concentration of HSA, which is added to the instillate over time. Alternatively, the over time weight loss as a measure of edema resorption (high weight loss is high liquid clearance), of the artificially instilled lung can be measured. The lung tidal volume, compliance and weight are monitored continuously during the experiment. At the end of the experiment bronchoalveolar fluid and supernatant of lung homogenate is taken for measurement of inflammatory mediators.
The lungs of female Wistar rats (weight 200–250 g; Harlan-Winkelmann, Borchen, Germany) are prepared after terminal i.p. anesthesia by 160 mg/kg pentobarbitural —Na (Merial Ltd, Halbermoos, Germany) and perfused as described by Uhlig and Wolin (1994), and by Uhlig and von Bethmann (1997). All equipment is obtained from Hugo Sachs Electronics (March-Hugstetten, Germany). […] As perfusion medium, a Krebs-Henseleit buffer (38° C.) containing 2% bovine serum albumin (Fraction V, Scrva. Heidelberg, Germany), 0.1% glucose (Riedel-de-Haën Inc., Seelze, Germany), and 0.3% HEPES (ICN Biomedicals Inc., Ohio, USA) is used. The total amount of recirculating buffer is 100 ml. The lungs are suspended by the trachea and ventilated by negative pressure ventilation (inspiratory pressure: −7 cm H2O, expiratory pressure: −2 cm H2O) with 80 breaths per minute resulting in a tidal volume of approximately 2 ml. Every 5 minutes, a deep inspiratory breath (−20 cm H2O) is performed. Artificial thorax chamber pressure is measured with a differential pressure transducer (Validyne DP 45-14), and an air flow velocity with a pneumotachograh tube (Fleisch Type 0000) connected to a differential pressure transducer (Validyne DP 45-15). The perfusate flow (Narcomatic RT-500) and the arterial and venous pressure (Statham P23BB) are continuously monitored. The pH of the perfusate before entering the lung is kept at 7.25 to 7.35 by automatic bubbling of the buffer with CO2 as soon as the pH exceeds this range. A weight transducer is integrated into the chamber lid which allows the continuous assessment of lung weight. Data are recorded on a Pentium II computer using the Mathlab Sofware package (Mathworks, Inc., Nattick Mass., USA). For lung mechanics, the data are analyzed by applying the following formula: P=1/C*VT+RLdV/dT
Where P is chamber pressure, C pulmonary compliance, VT tidal volume, and RL airway resistance. All lung physiology parameters were normalized to time point 0, i.e. after the end of the preconditioning perfusion of 40 minutes.

Experiment [2] has as its system resident peritoneal macrophages. Put plainly: Whole-cell patch clamp in resident peritoneal macrophages. The note with it: 30 min preincubation, acidic pH. Format: cell-based, mouse. From the text:
Animals, cells and reagents. Male CBA/J or C57BL/6 mice, as well as male TNFR ½^0/0 C57BL/6 mice deficient in TNF receptors (Bruce et al., 1996) provided by H. Bluethmann, F. Hoffmann-La Roche, Basel, Switzerland, were used at the age of 8–10 weeks. Their care was in accordance with institutional guidelines. Lung microvascular endothelial cells were isolated from CBA/J mice and characterized as described (Jackson et al., 1990) using magnetic beads (Dynabeads M-450, Dynal, Oslo, Norway), covalently bound to a purified rat-anti-mouse PECAM-1 monoclonal antibody (donated by B. Imhof, University of Geneva). Microvascular lung endothelial cells were resuspended in DMEM containing 2 mM L-glutamine, 100 U/ml penicillin, […], 20% FCS, 40 U/ml heparin and […] endothelial cell growth supplement (Brunschwig Chemie, Basel, Switzerland). For patch clamp experiments, cells were plated onto 35×10 mm easy grip Petri dishes (Beckton Dickinson, Plymouth, UK), pre-coated with 0.2% gelatin (Sigma, Buchs, Switzerland). Resident peritoneal macrophages, isolated in ice cold RPMI containing antibiotics and 10 U/ml Heparin, were left to adhere onto 35×10 mm easy grip Petri dishes for 4 h, after which the non-adherent cells were removed. […]
Electrophysiology. […] Currents were recorded with an Axopatch-200A amplifier (Axon Instrument Inc, Foster City, Calif., USA), low pass-filtered at 1 kHz. […]

Experiment [3] is described as follows: Chloride efflux from SPQ-containing liposomes. The note with it: 100% EPG liposomes, pH 6.1, 3 μg/ml. The protocol: Preparation of liposomes. Large unilamellar liposomes were prepared by reverse phase evaporation as previously described (Vecsey-Semjen et al., 1996). Liposomes were prepared of either 100% egg phosphatidylglycerol (EPG) or a mixture of EPC and EPG (1:1 W/W) in a buffer containing 100 mM KCl, 20 mM N-[2-Hydroxyethyl]piperazine-N′-[2-ethane-sulfonic acid] (HEPES), pH 7.4 and 1.5 mg/ml of 6-methoxy-N-(3-sulfopropyl)quinolinium (SPQ).
Choride efflux measurements. All fluorescence experiments were carried out using a PTI spectrofluorometer equipped with a thermostated cell holder (37° C.). The dye was excited at 350 nm and emission was recorded at 422 nm, both excitation and emission band widths were set to 5 nm. Liposomes were diluted to a final concentration of 50 μg/ml in a solution containing 100 mM KNO3 and 20 mM MES pH 6.1 or 20 mM HEPES, pH 7.4. Wild type and mutant TNF were added to a final concentration of 3 μg/ml.

Several values for one entry are separate records, joined by “and”; a condition that tells them apart may be missing. Equal entries are not always repeated.

Take “TNF: E.coli-derived recombinant murine TNF”: the “clearing alveolar fluid content ex vivo” value in experiment [1] (after intratracheal instillation, summary in words) was “capable of clearing alveolar fluid content”. For the same substance, the “Weight loss of ex vivo instilled rat lung over 80 min” value in experiment [1] (recombinant TNF 5 μg/lung alone, listed as mTNF) is 589 mg and 722 mg and 584 mg. For the same substance, in experiment [2], the whole cell current entry was “significant increase in outward”. Also, the “chloride efflux (SPQ fluorescence)” value in experiment [3] is listed as “induced chloride efflux”.

For the origin of these results see US7258861B2, “TNF-derived peptides for use in treating oedema” (Innogenetics N.V., priority 2001, dated 2007).
